Measurements reported in patent publication US6482609B1, “Isolated human EDG-4 receptor and polynucletide encoding said receptor” (priority 1997, dated 2002).
Entries after “also recorded” stand apart in the source; their conditions may differ.

Legend:
HeLa cells = experiment: Cytotoxicity (viable cell count) in HeLa cells; assay type: cell-based, human; conditions: S1P concentrations up to 10 μM
Source text: Follow Procedure #2 For HeLa Cells with the following exceptions: […]

COS-1 cells = experiment: IL-8 ELISA on control COS-1 cells (empty vector pcDNA3); assay type: cell-based; conditions: COS-1 cells transfected with pcDNA3; S1P 5 μm
Method: (§1) A. DEAE/Dextran Cell Suspension Transient Transfection.
(§2) Transfection was done as described in Anal Biochem 218:460 (1994).
(§3) 1) 6 ml RSC was added to 4-50 ml tubes. The following amounts of DNA were added:
(§4) 3) 1.5 ml COS-1 cell suspension (5.5×10^6 cells total) in RSC was added to each tube and incubated for 105 min in 37° C. incubator. Tubes were mixed every 20 min.
(§5) 4) Following incubation, tubes were spun for 5 min, cell pellets were washed with DMEM/F12+10% FBS once and then resuspended in 10 ml media. Cells were plated in 24-well plates at 0.2×10^6 cells/well.
(§6) 500 μl treatment volume was used. Supernatants were microfuged at 14,000 rpm for 10 min., transferred to new eppendorf tubes and stored at −20° C. for future IL-8 ELISA determination.
(§7) The procedure as outlined in Procedure for HeLa Cells (D) was followed, using 50 μl of sample per ELISA determination in duplicate.

human EDG-3 = biological target: T1, human EDG-3 (Homo sapiens, UniProt Q99500); experiment: Calcium microfluorimetry in 293-EBNA cells, EDG-3; assay type: cell-based; conditions: EDG-3 transfected cells; 2 μM S1P
T1 construct: expressed in transfected cells; host or cells: 293-EBNA
T1 sequence (Q99500 whole entry): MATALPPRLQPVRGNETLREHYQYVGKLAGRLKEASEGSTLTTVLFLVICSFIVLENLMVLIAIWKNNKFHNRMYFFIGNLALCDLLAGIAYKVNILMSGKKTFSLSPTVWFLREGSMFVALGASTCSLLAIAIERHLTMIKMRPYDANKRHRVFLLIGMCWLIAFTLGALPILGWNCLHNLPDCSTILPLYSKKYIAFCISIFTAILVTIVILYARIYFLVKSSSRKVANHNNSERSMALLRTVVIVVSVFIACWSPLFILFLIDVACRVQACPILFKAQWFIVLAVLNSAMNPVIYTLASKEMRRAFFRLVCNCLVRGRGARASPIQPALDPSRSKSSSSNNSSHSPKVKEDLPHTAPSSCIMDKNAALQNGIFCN
Method: Transfections were carried out with EDG receptors in 293-EBNA cells as described above, except that no reporter gene vector was included in the DNA mix. Two days after transfection, cells were harvested by trypsinization and plated at a density of 200,000 cells onto poly-D-lysine-coated coverslips in 100 μl of medium containing 0.5% FBS. After briefly allowing cell attachment to take place, 2 ml of medium without FBS was added and the cells were incubated overnight. The next day, cells were loaded with 5 μM fura-2 AM ester (Molecular Probes) for 60 min at RT, then washed and used for calcium microfluorimetry. […] Treatments were applied using a gravity-fed perfusion apparatus. Fluorescence emission was continuously monitored and recorded with PTI 2.060a software and analyzed with Sigma Plot software. Intracellular calcium concentrations were calculated by interpolation on a ratiometric fluorescence curve generated from fura-2 fluorescence in a calcium dilution series.

rat edg4 [1] = biological target: T2, rat edg4 (Rattus norvegicus, UniProt P47752); experiment: IL-8 ELISA on COS-1 cells transiently transfected with rat EDG-4; assay type: cell-based; parameters: expressed in transfected cells
T2 sequence (P47752 whole entry): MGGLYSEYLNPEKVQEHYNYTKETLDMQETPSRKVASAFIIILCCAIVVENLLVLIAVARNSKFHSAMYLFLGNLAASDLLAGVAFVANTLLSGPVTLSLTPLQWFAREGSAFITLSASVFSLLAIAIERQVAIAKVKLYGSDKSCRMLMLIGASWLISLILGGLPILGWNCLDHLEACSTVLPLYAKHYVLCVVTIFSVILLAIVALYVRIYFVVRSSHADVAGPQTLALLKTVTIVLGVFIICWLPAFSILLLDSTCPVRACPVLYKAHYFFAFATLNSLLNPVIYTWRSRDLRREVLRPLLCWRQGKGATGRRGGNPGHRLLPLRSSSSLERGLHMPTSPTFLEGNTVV
Method: as §1, §2, §3, §4, §5, §6, §7

HL-60 cells = experiment: IL-8 ELISA on HL-60 cells; assay type: cell-based, human; conditions: 1, 6 or 24 hr, S1P or LPA up to 3 μM, TNF-α 10 ng/ml
Method: Procedure for HL-60 Cells:
Cells: HL-60 (promyelocytic, human) suspension cells
Media: RPMI 1640 medium with 2 mM L-glutamine adjusted to contain 4.5 g/L glucose, 10 mM HEPES, and 1.0 mM sodium pyruvate+10% FBS
1) Cells were plated at a density of 0.25×10^6 cells/ml.
2) Cell pellcts were resuspended in 0.5% FBS media at a density of approximately 1×10^6 cells/ml.
1) Made up all required solutions in 0.5% FBS media (control).
2) 1.4 ml appropriate treatments were added to each well of a 6-well plate.
5) 100 μl cell suspension was added to each well.
7) After the specified time cell supematants were collected into 1.5 ml eppendorf tubes, spun down at 14000 rpm for 5 minutes and stored at −20° C.
D. Refer to Procedure #1 For HeLa Cells (D).

EDG-7 = experiment: NF-κB reporter, EDG-7; assay type: cell-based
293-EBNA cells = experiment: IL-8 production in untransfected 293-EBNA cells; assay type: cell-based
EDG-1 = EDG-1 (Homo sapiens, UniProt P21453); experiment: SRE luciferase reporter (2XSREtk-p4Luc-zeo) in 293-EBNA cells, EDG-1; assay type: cell-based; parameters: expressed in transfected cells; host or cells: 293-EBNA; conditions: 3 μM, 6 hours
EDG-1, sequence (P21453 whole entry): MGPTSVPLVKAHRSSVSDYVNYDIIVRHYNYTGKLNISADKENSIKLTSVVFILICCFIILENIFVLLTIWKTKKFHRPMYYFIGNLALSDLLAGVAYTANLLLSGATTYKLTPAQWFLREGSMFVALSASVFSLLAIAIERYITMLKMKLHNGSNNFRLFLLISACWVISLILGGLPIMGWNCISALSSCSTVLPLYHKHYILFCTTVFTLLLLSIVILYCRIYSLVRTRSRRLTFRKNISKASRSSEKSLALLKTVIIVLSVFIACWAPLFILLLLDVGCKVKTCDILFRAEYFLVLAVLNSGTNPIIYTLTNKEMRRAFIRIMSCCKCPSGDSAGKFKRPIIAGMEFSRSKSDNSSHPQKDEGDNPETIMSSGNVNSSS

rat edg4 [2] = biological target: T2, rat edg4; experiment: SRE luciferase reporter in 293-EBNA cells, rat EDG-4; assay type: cell-based; parameters: expressed in transfected cells; host or cells: 293-EBNA; conditions: 3 μM SPC, 6 hr
Method: Transfection was accomplished using the Lipofectamine Plus kit (Life Technologies, Cat. 10964-013), using the manufacturer's recommended conditions. Optimal SRE induction was seen when cells were seeded so as to become 100% confluent at the time of treatment, 72-96 hr after transfection.

[3] = tested on: Human Umbilical Vein Endothelial Cells (HUVEC); experiment: IL-8 ELISA on primary cultured HUVEC treated with lysolipids; assay type: cell-based; conditions: 6 hr treatment
Method: Plating, Pretreatment and Treatment of HUVEC
Procedures were followed as detailed above in “Procedure #1 for HeLa Cells” with the following exceptions:
Cells were plated at 20,000 cells/well into 24-well plates. The next day, cells were serum-starved overnight in EBM medium (Clonetics) with 0.5% FBS, and then treated in EBM without FBS for 6 hr with the following lysolipids:
Supematants were collected and IL-8 levels were deternined using ELISA as described previously.

Row | SMILES | Cell viability 24 hr after treatment (HeLa cells) | IL-8 response in control cells (COS-1 cells) | Increase in intracellular calcium (human EDG-3) [nM] | Increase in IL-8 release compared to untreated cells (rat edg4 [1]; COS-1 cells transfected with EDG-4 expression plasmid, 5 μm, overnight) [fold] | PTX sensitivity of IL-8 response (rat edg4 [1]; EDG-4 transfected COS-1 cells, PTX 50 ng/ml) | IL-8 release (HL-60 cells) | NF-κB reporter signaling (EDG-7) | IL-8 production (293-EBNA cells) | Increase in luciferase activity (SRE reporter) (EDG-1) [fold] | Induction of luciferase activity (SRE reporter) (rat edg4 [2]) [fold] | IL-8 response (qualitative) [3]
1 | CCCCCCCCCCCCC/C=C/[C@@H](O)[C@@H](N)COP(=O)(O)O [S1P, sphingosine-1-phosphate] | No loss of HeLa viability | No IL-8 response | 300 | 2 | pertussis toxin sensitive | no such release; also recorded: fail to produce IL-8 | fail to signal through NF-κB reporters | no IL-8 production | 8 |  | 
2 | CCCCCCCCCCCCC/C=C/[C@@H](O)[C@@H](N)COP(=O)([O-])OCC[N+](C)(C)C [SPC, sphingosylphosphorylcholine] |  |  |  |  |  |  |  |  |  | 35.6 | Marginal increases
